Series [1] concerns C57BL/6 mice with spinal cord contusion at T9. The series can be described thus: White matter sparing at the injury epicenter (eriochrome cyanine myelin staining) after spinal cord contusion. In kind it is in vivo. The procedure:
These mice were tested for overground locomotion using the Basso Mouse Scale (BMS) before the contusion and on the day of euthanasia.
To label endothelial cells of perfused blood vessels, 4 of the vehicle and 4 of the C16 mice received an intravenous injection of the lectin LEA 20 minutes before euthanasia.
To determine whether […] C16 would be neuroprotective, vehicle (n=8) or 100 μg/day C16 (n=9) was injected over 7 days. These mice were tested using the BMS before the contusion and on the last day.
To determine whether C16 had lasting neuroprotective effects, mice received daily injections with vehicle (n=8) or 100 μg/day C16 (n=9) for 14 days. […] These mice were evaluated every week by BMS and were euthanized after 6 weeks. […]
To detect myelin in white matter tracts, one of every five of the transverse sections at each rostro-caudal 1 mm level were stained with a modified eriochrome cyanine (EC) staining protocol (Rabchevsky et al., 2001, J Neurotrauma 18:513-522). […] The injury epicenter was determined for each mouse by the rostro-caudal level that contained the least amount of spared myelin per transverse section. […]
Sections were examined using a Leica DMIRE2 brightfield and fluorescence microscope and images digitized with an attached Spot RTKE camera (Diagnostics Inc., Sterling Height, Mich.). […] The area of LEA was determined with Scion Image. […]

The test system is the same in series [2]. The experiment in a line: Overground locomotor function, Basso Mouse Scale (BMS), after spinal cord contusion. Format: in vivo.
Method: To determine whether C16 had lasting neuroprotective effects, mice received daily injections with vehicle (n=8) or 100 μg/day C16 (n=9) for 14 days. The treatment was started 4 hours after the spinal cord injury consistent with the time it takes to diagnose most injured humans in the developed world. These mice were evaluated every week by BMS and were euthanized after 6 weeks.
Functional recovery from the spinal cord contusion was determined weekly by open-field overground locomotor performance using the Basso Mouse Scale (BMS; Basso et al., 2006, J Neurotrauma 23:635-659), with scores ranging from 0 (complete paralysis) to 9 (normal mobility). Left and right sides are scored separately and averaged for each mouse. Weight bearing is seen at a score of 5 but not at 4. Locomotor function was measured by placing the mouse for 4 min in the center of a circular enclosure (90 cm in diameter, 7 cm wall height) made of molded plastic with a smooth, non-slip floor. Before each evaluation, the mice were examined carefully for perineal infections, wounds in the limbs, or tail and foot autophagia, as they could influence stepping. Such mice were excluded from the BMS test. The mice were tested for baseline values before surgery. The mice in the 7-day experiments were tested on the day of euthanasia and the mice in the 6 week chronic group were tested every week starting on day 8 or 9 after the contusion.
Adult C57B1/6 mice received a contusion injury at the thoracic spine level 9. Starting 4 hours after the injury, the mice received daily intravenous injections of control vehicle, Ang-1 or Ang-1 plus C16 (all at 100 μg/day) for 7 days.
Functional recovery after SCI was determined weekly by open-field overground locomotor performance using the BMS (Basso et al., J Neurotrauma, 23(5), 635-659 (2006)). Before each evaluation, the mice were examined carefully for perineal infections, wounds in the limbs, or tail and foot autophagia, as they could influence stepping. Such mice were excluded from the BMS test. The mice were acclimatized to the testing area for at least 25 minutes, including individually handling for at least 5 minutes, for 3 days and then tested for baseline values before surgery. The mice in the 7-day experiments were tested on the day of euthanasia and the mice in the 6 week chronic group were tested every week starting on day 8 or 9 after the contusion.
The test system is the same in series [3]. The experiment in a line: Perfused (LEA lectin-labeled) blood vessels in the injury penumbra after spinal cord contusion. Format: in vivo. The settings on record: single i.v. injection immediately after injury; 24 hours.
Method: Normal (n=3) and 7 day sham operated mice (n=5) also received intravenous LEA injections.
To pre-label perfused blood vessels, 100 μg in 100 μl of FITC-conjugated LEA (Lectin from Lycopersicon esculentum; Sigma, St. Louis, Mo.) was injected into the other jugular vein 30 minutes before euthanasia.
Series [4] shares this test system. The experiment in a line: Inflammation: CD45 and CD68 immunostained area after spinal cord contusion. Format: in vivo. The procedure:
Adjacent sections at each mm level were processed for double- or triple immunofluorescent staining to detect CD45 (leukocytes), CD68 (activated microglia/macrophages), PECAM1 (endothelial cells), αv, β3 or α5β1 integrin, or in some cases laminin (to define the so-called heterodomain or area of tissue loss). Slides were warmed for 20 minutes on a slide warmer, a ring of wax applied around the sections with a PAP pen (Invitrogen™, Carlsbad, Calif.) and the slides rinsed in 0.1 M Tris-buffered saline (TBS) for 10 min. […] To measure the volume of tissue loss as determined by laminin staining in the horizontal sections, the sections were processed using an ABC-DAB staining protocol.
Sections were examined using a Leica DMIRE2 brightfield and fluorescence microscope and images digitized with an attached Spot RTKE camera (Diagnostics Inc., Sterling Height, Mich.). EC, CD45, CD68 and PECAM staining through the entire plane of the transverse sections was digitized using a 5× objective and the area occupied by the staining calculated for the three sections per rostro-caudal level by using the threshold feature of Scion Image software (Scion Corporation, Frederick, Md.). […] The area of LEA was determined with Scion Image. To provide a measure of the number of blood vessels, the number of LEA-positive vessels intersecting 100 μm spaced horizontal (5) and vertical (6) lines were counted in each image. […] The software calculated the volume based on the section interval and the area per section and this was expressed as a percentage of the total 10 mm segment. […]

Series [5] shares this test system. The series can be described thus: Blood vessel permeability: luciferase extravasated into the spinal cord at the injury site. In kind it is in vivo. The procedure: Increased permeability contributes to tissue loss following SCI and was measured here by the amount of luciferase that extravasated into the spinal cord at the injury site after i.v. injection 20 minutes before analysis.

Series [6] can be described thus: Blood cell counts after 7 days of treatment. The settings on record: daily C16 for 7 days after T9 contusion; individual mice A, B. Format: in vivo, mice. Also on record: key to Leukocytes eosinophils / Leukocytes basophils / Erythrocytes / Leukocytes total / Leukocytes neutrophils / Leukocytes lymphocytes / Leukocytes monocytes: N = within the normal range. The procedure:
(§1) To determine potential effects of C16 on the number of peripheral leukocytes, 1 ml blood was drawn from the heart just before perfusion-fixation in mice that had been treated with vehicle (n=3) or C16 (n=2) for 7 days treated. The blood was collected in EDTA-coated tubes and blood counts were performed by Drew Scientific Inc. (Oxford, Conn.).
(§2) To determine potential effects of C16 on the number of peripheral leukocytes, 1 ml blood was drawn from the heart just before perfusion-fixation in mice that had been treated with vehicle or C16 for 7 days. The blood was collected in EDTA-coated tubes and blood counts were performed by Drew Scientific Inc. (Oxford, Conn.).

Series [7] deals with peripheral leukocytes. The series can be described thus: Blood cell counts after 7 days of treatment. Format: in vivo, mice. Also on record: key to Leukocytes eosinophils / Leukocytes basophils / Erythrocytes / Leukocytes total / Leukocytes neutrophils / Leukocytes lymphocytes / Leukocytes monocytes: N = within the normal range. The procedure: as §1, §2
In series [8] the test system is monocytic THP-1 cells across human aortic endothelial cells. The series can be described thus: Transendothelial migration assay. In kind it is cell-based. Conditions: SP3 600 μM; absence or presence of TNFα. The procedure:
Human aortic endothelial cells (Lonza, Wakersville, Md.) were plated on permeable filters in Transwell® culture plates (Costar, Cambridge, Mass.) at 4×10^4 cells per well. They were grown for 72-96 hours to reach confluency at 37° C. in Dulbecco's modified Eagle's medium Ham's F-12 (DMEM F-12; BioWhittaker, Walkersville, Md.) plus EGM-2 growth factor supplements (EGM-2 SingleQuots™ from Lonza Walkersville Inc, containing hydrocortisone, hEGF, FBS, VEGF, hFGF-B, R3-IGF-1, ascorbic acid, heparin and gentamicin/amphotericin-B) and 10-20% fetal calf serum. Afterwards, the inner chamber of the Transwell® system was loaded with 2×10^5 monocytic THP-1 cells (American Type Culture Collection, Manassas, Va.) and preincubated in medium with or without 15 ng/ml of TNF-α (PeproTech, Rocky Hill, N.J.) for 5 hr at 37° C. C16 peptide was added into the medium of the inner chamber at 25, 50, 100, 200, 400, 600 μM, and SP3 was added at 600 μM. […] The monocytic THP-1 cells were allowed to transmigrate for 6 h at 37° C. and the number of THP-1 cells that crossed endothelial cell layer was counted. […]
Human aortic ECs (BioWhittaker, Walkersville, Md.) were plated on permeable filters in Transwell culture plates (Costar, Cambridge, Mass.) at 4×10^4 cells per well. […] THP-1 cells were allowed to transmigrate for 6 h at 37° C. and the number of THP-1 cells that crossed EC layer was counted. […]

In series [9] the target is human αvβ3 integrin (human) (UniProt P06756). The experiment in a line: cell-based or functional assay.
Sequence of human αvβ3 integrin (human) (P06756 31-1048, chain 1 of 2): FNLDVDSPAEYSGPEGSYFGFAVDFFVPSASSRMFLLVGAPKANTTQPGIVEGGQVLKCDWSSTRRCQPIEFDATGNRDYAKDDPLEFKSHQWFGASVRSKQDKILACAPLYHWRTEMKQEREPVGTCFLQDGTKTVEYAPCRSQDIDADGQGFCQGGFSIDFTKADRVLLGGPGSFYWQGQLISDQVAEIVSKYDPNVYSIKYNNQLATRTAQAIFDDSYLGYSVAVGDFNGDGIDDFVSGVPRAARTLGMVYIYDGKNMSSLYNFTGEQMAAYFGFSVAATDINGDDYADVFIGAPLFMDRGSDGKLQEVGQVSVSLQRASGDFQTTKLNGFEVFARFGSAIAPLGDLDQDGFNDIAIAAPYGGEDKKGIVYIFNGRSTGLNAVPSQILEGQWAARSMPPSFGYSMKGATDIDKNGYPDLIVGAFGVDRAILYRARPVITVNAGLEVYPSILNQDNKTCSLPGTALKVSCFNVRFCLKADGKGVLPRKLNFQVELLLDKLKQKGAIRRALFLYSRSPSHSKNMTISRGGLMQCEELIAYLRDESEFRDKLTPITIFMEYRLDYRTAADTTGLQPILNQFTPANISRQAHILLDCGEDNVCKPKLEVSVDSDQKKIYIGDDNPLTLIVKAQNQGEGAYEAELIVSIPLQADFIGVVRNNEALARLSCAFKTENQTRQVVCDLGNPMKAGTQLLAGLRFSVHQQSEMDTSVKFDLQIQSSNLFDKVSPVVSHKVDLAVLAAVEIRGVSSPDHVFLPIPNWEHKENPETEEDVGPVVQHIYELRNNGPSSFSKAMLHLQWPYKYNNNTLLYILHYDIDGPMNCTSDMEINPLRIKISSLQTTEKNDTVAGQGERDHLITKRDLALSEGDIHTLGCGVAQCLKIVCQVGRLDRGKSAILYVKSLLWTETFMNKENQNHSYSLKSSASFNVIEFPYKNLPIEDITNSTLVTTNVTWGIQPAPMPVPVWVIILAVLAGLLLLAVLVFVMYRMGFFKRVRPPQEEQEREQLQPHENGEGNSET
Sequence of human αvβ3 integrin (human) (P05106 27-788, chain 2 of 2, further chain): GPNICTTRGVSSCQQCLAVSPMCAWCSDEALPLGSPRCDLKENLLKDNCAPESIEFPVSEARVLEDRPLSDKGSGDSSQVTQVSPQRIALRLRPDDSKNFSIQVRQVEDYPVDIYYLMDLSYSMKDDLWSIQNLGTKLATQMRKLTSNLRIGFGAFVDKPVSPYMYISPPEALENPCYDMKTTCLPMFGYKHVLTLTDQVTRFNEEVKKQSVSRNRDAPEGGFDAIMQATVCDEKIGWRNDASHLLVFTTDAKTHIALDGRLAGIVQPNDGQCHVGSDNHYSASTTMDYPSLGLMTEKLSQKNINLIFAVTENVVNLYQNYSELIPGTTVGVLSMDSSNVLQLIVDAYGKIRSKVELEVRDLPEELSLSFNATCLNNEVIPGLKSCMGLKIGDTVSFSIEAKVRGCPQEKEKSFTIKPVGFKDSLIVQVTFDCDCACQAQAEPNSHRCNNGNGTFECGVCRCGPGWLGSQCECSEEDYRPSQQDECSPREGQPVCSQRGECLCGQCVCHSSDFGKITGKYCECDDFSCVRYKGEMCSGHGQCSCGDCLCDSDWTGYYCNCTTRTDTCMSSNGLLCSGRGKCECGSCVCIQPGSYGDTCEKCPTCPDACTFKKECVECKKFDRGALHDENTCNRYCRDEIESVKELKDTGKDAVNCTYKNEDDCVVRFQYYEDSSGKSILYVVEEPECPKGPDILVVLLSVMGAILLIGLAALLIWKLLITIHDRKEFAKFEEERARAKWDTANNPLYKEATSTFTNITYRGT
Setting [10] is: daily C16 for 7 days after T9 contusion, individual mice A, B.

Ends that are not written are not given here.

These results are taken from patent publication US20090247466A1, “NEUROPROTECTIVE INTEGRIN-BINDING PEPTIDE AND ANGIOPOIETIN-1 TREATMENTS” (University of Louisville Research Foundation, priority 2008, published 2009).

As for “Angiopoietin-1 tetra-fibrinogen-like domain [Ang-1]”, the “cross-sectional area of white matter at the epicenter compared with vehicle” value in series [1] (7 and 42 day post-injury times) is on record as “greater”. The “BMS score (9 point scale)” value in series [2] (100 μg/day i.v. for 7 days starting 4 hours after injury, behavioral analyses over 6 weeks) stood at 5.5. Moreover, in [2] (i.v. for 7 days, at 43 days), the “mice with a BMS score of 7 or above” value is 4/14. Also, the “mice with a BMS score of 7 and above” value in [2] (last two weeks of testing (5 and 6 weeks after injury)) came to 28%. Besides, in [3], the “number of LEA-positive blood vessels in the penumbra, of sham” value is reported as 40%. Besides, the “smaller area of CD68 staining than vehicle treated mice” value in series [4] (24 hours, 3 mm rostral to 3 mm caudal from the epicenter) was roughly 25%. The “inflammation (CD45, CD68 area) compared with vehicle” value in series [4] (all post-injury times, 3 mm rostral to 3 mm caudal from the epicenter) was “reduced inflammation”. For the same substance, the “luciferase values versus vehicle” value in series [5] (24 hours following SCI) is listed as “not different”. Besides, in series [5] (72 hours following SCI), the “luciferase values, of vehicle” value is given as 55±13%.
“KAFDITYVRLKF [C16, KAFDITYVRLKF (SEQ ID NO:2)]”: the Erythrocytes result in [6] is listed as “N”. In [7] (setting [10]), the Leukocytes basophils result is listed as “N”, the Leukocytes eosinophils result is listed as “N”, the Leukocytes lymphocytes result is listed as “N” and the Leukocytes monocytes result was “N”. In series [7] (setting [10]), the Leukocytes neutrophils result was “N”, the Leukocytes total entry is listed as “N” and the Thrombocytes entry is on record as “low”. For the same substance, in [7] (treated for 7 days), the white cell counts entry was “within normal range”.
For “RFSVAVSSHYPFWSR (SEQ ID NO:3) [SP3, reference compound]”, the “white matter cross-sectional area at the injury epicenter, percent of sham-operated mice” value in series [1] (100 μg/day i.v. daily for 7 days, 7 days after contusion) is 30±5%. The BMS score in [2] (100 μg/day i.v. daily for 7 days, 7 days following injury) was 0.7±0.3. Besides, the “effect on the inflammatory response” value in series [4] (control peptide 100 μg/day, at 7 days) is given as “no significant effect”. Moreover, in [8], the “effect on monocyte transmigration” value is “no significant effect”.
In [9], “azide-free blocking antibody against human αvβ3 (Cat# MAB1976Z, Chemicon; also known as LM609)” returned a monocyte (THP-1) transmigration across an endothelial cell layer, blocking antibody, with TNFα, without C16 of 64% and a monocyte transmigration across an EC layer, reduction by blocking antibody of 36%.
